# From patent publication US20230063321A1, “Methods for Treating Inflammatory Bowel Diseases with alpha4beta7 Integrin Antagonists” (Protagonist Therapeutics, Inc., priority 2020, published 2023)
# Values joined by “and” are separate entries in the source; they are usually repeats but may differ in a detail not shown here. Equal entries are not always repeated. Numbered stars: 1 amine (or outer) side, 2 acyl side, 3 side chain; on linkers, the order of the positions; unused ones are H or OH. Bridge positions count the residues as written; N and C are the ends. Square brackets hold non-standard residues; d marks the D form. Peptide text beside a SMILES is read from it. I, II: the chains in the order shown. ξ: configuration not given here. Phe(4-tBu) = CC(C)(C)c1ccc(C[C@H](N)C(=O)O)cc1; Diglycolyl = O=C(COCC(=O)[*:2])[*:1]; NMeR = CN[C@@H](CCCNC(=N)N)C(=O)O; β3hE = N[C@@H](CCC(=O)O)CC(=O)O; Thr(3ξ) = CC(O)[C@H](N)C(=O)O; X1 = O=C(c1ccccc1C[*:2])[*:1]; Pen = CC(C)(S)[C@H](N)C(=O)O
# Experiments:
# α4β7 = molecular target: T1, α4β7 (Homo sapiens, UniProt P13612+P26010); assay: α4β7 internalization / surface expression by flow cytometry; type: cell-based
# T1 construct: endogenous in cells
# T1 sequence (P13612 34-1032): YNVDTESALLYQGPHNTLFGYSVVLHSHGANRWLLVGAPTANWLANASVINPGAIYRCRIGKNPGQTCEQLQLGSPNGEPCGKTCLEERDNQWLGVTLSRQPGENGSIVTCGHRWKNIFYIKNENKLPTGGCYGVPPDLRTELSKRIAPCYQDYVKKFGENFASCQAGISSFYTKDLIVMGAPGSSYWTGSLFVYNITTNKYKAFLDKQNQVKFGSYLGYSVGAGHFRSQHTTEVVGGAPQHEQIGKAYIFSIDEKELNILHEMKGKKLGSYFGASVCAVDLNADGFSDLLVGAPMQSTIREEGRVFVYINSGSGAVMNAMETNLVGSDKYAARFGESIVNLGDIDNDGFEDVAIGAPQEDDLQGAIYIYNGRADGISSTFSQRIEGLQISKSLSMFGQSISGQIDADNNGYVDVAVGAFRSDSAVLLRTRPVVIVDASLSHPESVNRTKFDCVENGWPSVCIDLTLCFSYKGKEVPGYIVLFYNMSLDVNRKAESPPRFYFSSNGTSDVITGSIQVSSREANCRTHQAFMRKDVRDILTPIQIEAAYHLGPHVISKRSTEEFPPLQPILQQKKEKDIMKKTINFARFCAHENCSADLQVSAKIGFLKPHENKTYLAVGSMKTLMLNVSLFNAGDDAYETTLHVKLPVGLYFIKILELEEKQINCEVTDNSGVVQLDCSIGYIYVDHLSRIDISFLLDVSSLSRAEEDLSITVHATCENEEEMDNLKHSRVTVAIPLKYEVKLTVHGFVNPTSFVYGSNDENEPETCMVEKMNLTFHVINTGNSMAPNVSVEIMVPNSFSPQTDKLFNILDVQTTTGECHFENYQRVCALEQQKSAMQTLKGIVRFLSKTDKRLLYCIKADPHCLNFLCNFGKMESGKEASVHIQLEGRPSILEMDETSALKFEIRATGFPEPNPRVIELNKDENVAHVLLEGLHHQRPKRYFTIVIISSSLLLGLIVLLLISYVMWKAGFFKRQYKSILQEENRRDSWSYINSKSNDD
# T1 sequence (P26010 20-798): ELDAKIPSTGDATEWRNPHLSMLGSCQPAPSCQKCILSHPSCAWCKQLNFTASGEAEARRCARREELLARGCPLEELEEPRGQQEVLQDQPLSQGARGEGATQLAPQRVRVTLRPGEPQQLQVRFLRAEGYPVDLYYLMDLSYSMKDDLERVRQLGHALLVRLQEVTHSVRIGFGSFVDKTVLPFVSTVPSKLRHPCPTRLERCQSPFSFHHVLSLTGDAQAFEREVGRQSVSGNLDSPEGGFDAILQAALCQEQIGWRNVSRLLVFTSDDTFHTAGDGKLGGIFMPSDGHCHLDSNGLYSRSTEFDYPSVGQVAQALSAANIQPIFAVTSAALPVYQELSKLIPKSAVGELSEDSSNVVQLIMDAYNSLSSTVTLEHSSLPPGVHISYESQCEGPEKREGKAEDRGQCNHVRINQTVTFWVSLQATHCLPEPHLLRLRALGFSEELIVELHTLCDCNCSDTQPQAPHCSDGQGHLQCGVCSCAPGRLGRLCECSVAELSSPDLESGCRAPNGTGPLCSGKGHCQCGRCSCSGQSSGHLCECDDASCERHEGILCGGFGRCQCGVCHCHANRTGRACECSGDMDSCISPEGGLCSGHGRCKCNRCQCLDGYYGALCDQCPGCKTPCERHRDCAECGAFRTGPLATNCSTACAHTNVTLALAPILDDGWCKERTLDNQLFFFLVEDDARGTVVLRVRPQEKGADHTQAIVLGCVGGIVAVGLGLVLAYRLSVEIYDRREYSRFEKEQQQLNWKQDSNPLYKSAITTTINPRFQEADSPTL
# Excerpt: Blood samples from human donors were obtained from the Stanford Blood Center (Stanford, Calif.) under an RB-approved research protocol. Blood was drawn into BD Vacutainer sodium heparin blood collection tubes (BD Biosciences, Cat #362753). Peripheral blood mononuclear cells (PBMCs) were isolated from blood using a SepMate-50 tube and LymphoPrep per the manufacturer's protocol. CD4^+ T memory cells were enriched after PBMC isolation, using an EasySep kit (StemCell Technologies) per the manufacturer's protocol.
# After incubation, an aliquot of cells from each reaction was stained for α4β7 expression.
# After incubation, cells were washed extensively to remove excess peptide. For each reaction, an aliquot of cells was stained for α4β7 expression, while a separate aliquot was tested for adhesion to MAdCAM1.
# An aliquot of cells were collected before and 24 h post peptide addition and stained for α4β7 expression. Afterwards, cells were extensively washed to remove excess peptide and incubated in fresh complete culture medium (without MnCl2) for an additional seven days. On day 1, 2, 4, 5, and 7 days after peptide washout, aliquots were stained for α4β7 expression.
# Following peptide incubation, an aliquot of each reaction was stained for surface expression of α4β7 in preparation for flow cytometry. Cells were stained at 4° C. for 30 minutes, washed twice in DPBS containing 0.5% BSA (PBS/BSA), incubated with streptavidin BV421 (diluted 1:1000) at 4° C. for 30 minutes, washed twice in PBS/BSA, and then resuspended in PBS/BSA for analysis. Where relevant, a “fluorescence minus one” (FMO) sample was used as the staining control.
# Samples were analyzed by flow cytometry on a BD (Franklin Lakes, N.J.) FACSVerse flow cytometer equipped with the following lasers: 405 nm (violet), 488 nm (blue), 561 nm (yellow-green), and 640 nm (red). CD4^+ T memory cells were identified as CD4^+, […], CD197^+ lymphocytes. α4β7 expression within CD4^+ T memory cells was identified based on staining with the Vedolizumab BV421 complex; staining was analyzed using BD FACSuite software, version 1.0.5. Where applicable, values were normalized to no-peptide controls and expressed as percentages to permit assessment of changes in the indicated parameter. Data were plotted and analyzed using Prism software (version 7; GraphPad, La Jolla, Calif.).
# [1] = Drug exposure in plasma and Peyer's patches after oral dosing
# Method: One hour following dosing, mice were euthanized and whole blood/plasma and Peyer's patches were collected. Peyer's patches were dispersed in 1 mL RPMI medium with 2% FBS without washing step. Whole blood and single cell suspension of Peyer's patches (100 uL out of 1 mL total) were submitted for flow cytometry to determine α4β7 receptor occupancy. % RO=(1−(% positive test sample/% positive median vehicle control))*100. Plasma and Peyer's patches dispersed in single cell suspension (500 uL of 1 mL total) were also analyzed for drug exposure.
smiles,measurement,setting,value
"CC(C)C[C@@H]1NC(=O)[C@H](C(C)O)NC(=O)[C@H](CC(=O)O)NC(=O)[C@H](CO)NC(=O)[C@H](CCCNC(=N)N)N(C)C(=O)c2ccccc2CSC(C)(C)[C@@H](C(=O)N[C@@H](Cc2ccc(C(C)(C)C)cc2)C(=O)N[C@@H](CCC(=O)O)CC(=O)N[C@H](CCCCNC(=O)COCC(=O)NCCCC[C@@H](NC(=O)C[C@H](CCC(=O)O)NC(=O)[C@H](Cc2ccc(C(C)(C)C)cc2)NC(=O)[C@H]2NC(=O)[C@H](CC(C)C)NC(=O)[C@H](C(C)O)NC(=O)[C@H](CC(=O)O)NC(=O)[C@H](CO)NC(=O)[C@H](CCCNC(=N)N)N(C)C(=O)c3ccccc3CSC2(C)C)C(=O)O)C(=O)O)NC1=O (stereo partly drawn) [Compound A, ((2-Benzyl)-(N-Me-R)-Ser-Asp-Thr-Leu-Pen-(Phe(4-tBlu))-(β-homo-Glu)-(D-Lys)-OH)2 (SEQ ID NO: 5) and linker-DIG diglycolic acid] (I: [NMeR]SD[Thr(3ξ)]L[Pen][Phe(4-tBu)][β3hE][dK]-OH / II: [NMeR]SD[Thr(3ξ)]L[Pen][Phe(4-tBu)][β3hE][dK]-OH; linker I:9-II:9 via Diglycolyl; linker I:N-I:6, II:N-II:6 via X1)","induced internalization of α4β7, time and concentration dependence","α4β7; CD4+ T memory cells, 10 nM for 0 to 48 h, 0-10 nM for 24 h",time (FIG. 15) and concentration (FIG. 16) dependent
same,Maximal α4β7 expression reduction (%),"α4β7; Donor 1, normalized to no-peptide control",53%
same,Maximal α4β7 expression reduction (%),"α4β7; Donor 2, normalized to no-peptide control",25%
same,Maximal α4β7 expression reduction (%),α4β7; Mean of two donors,39%
same,additional incubation after washout until α4β7 expression recovered to control levels,"α4β7; human PBMCs, 10 nM 24 h then washout",5 days and 4 to 5 days
same,α4β7 expression MFI difference compared to FMO control (4219 MFI),"α4β7; human PBMCs, 10 nM, 24 h",20.6%
same,α4β7 expression as measured by MFI,"α4β7; human PBMCs, 10 nM, 24 h, without MnCl2",5090 MFI
same,concentration in plasma and Peyer's Patches vs dose,[1]; 3 and 30 mg/kg,significant dose-dependent increase
same,concentration in Peyer's Patches compared to plasma,[1]; both dose levels (3 and 30 mg/kg),significantly higher
